{"source": "ChEMBL document CHEMBL5352388", "about": "(Eur J Med Chem, 2022)", "key": {"[1]": {"experiment": "Half life in Sprague-Dawley rat at 10 mg/kg,po by LC-MS/MS analysis", "assay_type": "ADME, organism-based", "details": "in vivo"}, "[2]": {"system": "A549", "experiment": "Antitumor activity against human A549 cells xenografted in BALB/c mouse assessed as chromatin condensation at 10 mg/kg,ip administrated for 15 days", "assay_type": "functional, organism-based", "details": "time 15.0 day"}, "[3]": {"target": "CYP2C19 (Homo sapiens, UniProt P33261)", "sequence (P33261 whole entry)": "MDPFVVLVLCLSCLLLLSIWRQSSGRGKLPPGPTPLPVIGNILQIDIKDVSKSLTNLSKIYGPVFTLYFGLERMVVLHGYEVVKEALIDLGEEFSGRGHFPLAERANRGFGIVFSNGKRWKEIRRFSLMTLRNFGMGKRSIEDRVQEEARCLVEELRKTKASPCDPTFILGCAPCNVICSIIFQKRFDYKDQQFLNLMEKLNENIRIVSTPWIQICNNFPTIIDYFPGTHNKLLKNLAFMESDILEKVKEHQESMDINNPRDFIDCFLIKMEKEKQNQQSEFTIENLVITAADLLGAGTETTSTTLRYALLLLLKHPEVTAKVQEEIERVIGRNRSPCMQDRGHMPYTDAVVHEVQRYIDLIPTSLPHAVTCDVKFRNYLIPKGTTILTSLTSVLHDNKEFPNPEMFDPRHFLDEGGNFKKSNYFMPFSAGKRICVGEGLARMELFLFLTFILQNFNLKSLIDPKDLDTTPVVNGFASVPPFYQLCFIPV", "experiment": "Inhibition of CYP2C19 (unknown origin) at 10 uM incubated for 20 mins in presence of NADPH by LC/MS/MS analysis relative to control", "assay_type": "ADME"}, "[4]": {"target": "T1, Lysine-specific histone demethylase 1A (Homo sapiens, UniProt O60341)", "experiment": "Inhibition of LSD1 (unknown origin) assessed as inhibition constant using H3K4me2 as substrate by Lineweaver-Burk plot analysis"}, "[5]": {"experiment": "Intrinsic clearance in human liver measured upto 60 mins in presence of NADPH by LC/MS/MS analysis", "assay_type": "ADME, tissue-based", "details": "read-out: CLH"}, "[6]": {"system": "A549", "experiment": "Induction of apoptosis in human A549 cells assessed as downregulation of AKT phosphorylation incubated for 72 hrs by Western blotting assay", "assay_type": "functional, cell-based"}, "[7]": {"system": "NCI-H460", "experiment": "cells", "details": "Homo sapiens, NCI-H460, 72 h", "description": "Antiproliferative activity against human NCI-H460 cells assessed as inhibition of cell growth incubated for 72 hrs by CCK-8 assay"}, "[8]": {"target": "T1, Lysine-specific histone demethylase 1A", "experiment": "Inhibition of LSD1 in human A549 cells assessed as increase in H3K9me1 protein level at 1 to 4 uM incubated for 72 hrs by Western blotting assay", "assay_type": "cell-based", "details": "dose 1-4 µM"}, "[9]": {"experiment": "Clearance in Sprague-Dawley rat at 3 mg/kg,iv by LC-MS/MS analysis", "assay_type": "ADME, organism-based", "details": "in vivo"}, "[10]": {"target": "T1, Lysine-specific histone demethylase 1A", "experiment": "Inhibition of LSD1 in human A549 cells assessed as increase in H3K4me1 protein level at 1 to 4 uM incubated for 72 hrs by Western blotting assay", "assay_type": "cell-based", "details": "dose 1-4 µM"}, "[11]": {"target": "T2, Amine oxidase [flavin-containing] B (Homo sapiens, UniProt P27338)", "T2 sequence (P27338 whole entry)": "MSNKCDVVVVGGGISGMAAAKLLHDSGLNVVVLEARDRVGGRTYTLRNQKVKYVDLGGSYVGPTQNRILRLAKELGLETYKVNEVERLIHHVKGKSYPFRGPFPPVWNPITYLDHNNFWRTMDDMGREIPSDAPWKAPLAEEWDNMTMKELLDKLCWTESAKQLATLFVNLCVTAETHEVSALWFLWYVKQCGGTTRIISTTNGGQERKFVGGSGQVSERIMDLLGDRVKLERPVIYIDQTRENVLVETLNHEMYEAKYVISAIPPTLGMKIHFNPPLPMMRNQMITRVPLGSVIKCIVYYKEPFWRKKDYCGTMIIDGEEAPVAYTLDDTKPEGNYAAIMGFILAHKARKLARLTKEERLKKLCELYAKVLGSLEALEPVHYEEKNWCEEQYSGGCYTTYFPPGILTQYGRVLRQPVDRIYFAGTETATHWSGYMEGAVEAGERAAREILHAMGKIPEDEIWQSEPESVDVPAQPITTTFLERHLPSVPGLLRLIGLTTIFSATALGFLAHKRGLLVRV", "description": "Inhibition of recombinant MAO-B (unknown origin) incubated for 60 mins by luminescence based flow cytometry"}, "[12]": {"system": "A549", "experiment": "Antiproliferative activity against human A549 cells assessed as reduction of Edu positive cells at 2 uM incubated for 48 hrs by EdU incorporation based laser scanning microscopic analysis", "assay_type": "functional, cell-based"}, "[13]": {"system": "A549", "experiment": "Induction of apoptosis in human A549 cells assessed as downregulation of mTOR phosphorylation incubated for 72 hrs by Western blotting assay", "assay_type": "functional, cell-based"}, "[14]": {"target": "T1, Lysine-specific histone demethylase 1A", "description": "Inhibition of recombinant human LSD1 using fluorometric substrate by HRP based fluorimeter microplate reader assay"}, "[15]": {"target": "T3, Amine oxidase [flavin-containing] A (Homo sapiens, UniProt P21397)", "T3 sequence (P21397 whole entry)": "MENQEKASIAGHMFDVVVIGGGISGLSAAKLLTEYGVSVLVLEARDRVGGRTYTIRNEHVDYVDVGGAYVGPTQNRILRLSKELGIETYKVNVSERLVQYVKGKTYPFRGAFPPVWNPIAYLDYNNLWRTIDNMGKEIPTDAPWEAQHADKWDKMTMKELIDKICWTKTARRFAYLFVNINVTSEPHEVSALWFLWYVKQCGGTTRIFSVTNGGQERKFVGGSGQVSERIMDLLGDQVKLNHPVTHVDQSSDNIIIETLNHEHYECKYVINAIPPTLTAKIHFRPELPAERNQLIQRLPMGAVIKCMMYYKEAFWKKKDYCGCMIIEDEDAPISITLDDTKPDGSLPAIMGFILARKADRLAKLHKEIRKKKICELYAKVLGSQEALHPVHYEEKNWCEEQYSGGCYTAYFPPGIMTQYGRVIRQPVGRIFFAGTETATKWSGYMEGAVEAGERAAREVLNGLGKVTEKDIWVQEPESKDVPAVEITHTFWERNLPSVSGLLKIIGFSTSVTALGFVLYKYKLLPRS", "description": "Inhibition of recombinant MAO-A (unknown origin) incubated for 60 mins by luminescence based flow cytometry"}, "[16]": {"experiment": "Toxicity in BALB/c mouse xenografted with human A549 cells assessed as change in body weight at 10 mg/kg,ip administrated for 15 days", "assay_type": "organism-based", "details": "in vivo, 360 h, time 15 day"}, "[17]": {"target": "CYP2D6 (Homo sapiens, UniProt P10635)", "sequence (P10635 whole entry)": "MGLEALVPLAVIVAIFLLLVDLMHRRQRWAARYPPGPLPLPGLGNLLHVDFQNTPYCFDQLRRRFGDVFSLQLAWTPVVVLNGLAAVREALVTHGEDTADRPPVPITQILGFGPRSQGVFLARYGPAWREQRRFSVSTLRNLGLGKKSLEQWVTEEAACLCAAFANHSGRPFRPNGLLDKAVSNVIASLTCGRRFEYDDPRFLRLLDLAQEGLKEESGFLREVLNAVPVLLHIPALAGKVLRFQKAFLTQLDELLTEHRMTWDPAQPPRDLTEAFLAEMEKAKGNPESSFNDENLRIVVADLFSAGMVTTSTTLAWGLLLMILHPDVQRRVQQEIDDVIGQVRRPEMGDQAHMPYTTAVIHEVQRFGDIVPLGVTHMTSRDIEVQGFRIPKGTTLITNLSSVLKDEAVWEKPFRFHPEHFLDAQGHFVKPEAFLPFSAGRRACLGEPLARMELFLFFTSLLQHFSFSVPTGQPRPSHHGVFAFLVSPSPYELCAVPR", "experiment": "Inhibition of CYP2D6 (unknown origin) at 10 uM incubated for 20 mins in presence of NADPH by LC/MS/MS analysis relative to control", "assay_type": "ADME"}, "[18]": {"experiment": "Half life in Sprague-Dawley rat at 3 mg/kg,iv by LC-MS/MS analysis", "assay_type": "ADME, organism-based", "details": "in vivo"}, "[19]": {"experiment": "in vitro", "details": "human, THLE-2 cells", "description": "Antiproliferative activity against human THLE-2 cells assessed as inhibition of cell growth incubated for 72 hrs by CCK-8 assay"}, "[20]": {"system": "A549", "experiment": "Induction of apoptosis in human A549 cells assessed as downregulation of BCL-2 at 1 to 4 uM incubated for 72 hrs by Western blotting assay", "assay_type": "functional, cell-based", "details": "dose 1-4 µM"}, "[21]": {"system": "A549", "experiment": "Antitumor activity against human A549 cells xenografted in BALB/c mouse assessed as reduction in tumor growth at 10 mg/kg,ip administrated for 15 days", "assay_type": "functional, organism-based", "details": "time 15.0 day"}, "[22]": {"system": "MGC-803", "experiment": "cells", "details": "Homo sapiens, MGC-803, 72 h", "description": "Antiproliferative activity against human MGC-803 cells assessed as inhibition of cell growth incubated for 72 hrs by CCK-8 assay"}, "[23]": {"system": "MCF7", "experiment": "cells", "details": "Homo sapiens, MCF7, 72 h", "description": "Antiproliferative activity against human MCF7 cells assessed as inhibition of cell growth incubated for 72 hrs by CCK-8 assay"}, "[24]": {"experiment": "AUC (0-infinity) in Sprague-Dawley rat at 3 mg/kg,iv by LC-MS/MS analysis", "assay_type": "ADME, organism-based", "design": "dose 3 mg/kg, route iv", "details": "in vivo"}, "[25]": {"system": "A549", "experiment": "Antitumor activity against human A549 cells xenografted in BALB/c mouse assessed as chromatin condensation at 20 mg/kg,ip administrated for 15 days", "assay_type": "functional, organism-based", "details": "time 15.0 day"}, "[26]": {"experiment": "Volume of distribution in steady state in Sprague-Dawley rat at 3 mg/kg,iv by LC-MS/MS analysis", "assay_type": "ADME, organism-based", "details": "in vivo, read-out: Vdss"}, "[27]": {"system": "A549", "experiment": "Induction of apoptosis in human A549 cells at 4 uM incubated for 48 hrs by Annexin V-FITC/PI staining based flow cytometry method", "assay_type": "functional"}, "[28]": {"experiment": "Tmax in Sprague-Dawley rat at 10 mg/kg,po by LC-MS/MS analysis", "assay_type": "ADME, organism-based", "details": "in vivo"}, "[29]": {"system": "A549", "experiment": "Antitumor activity against human A549 cells xenografted in BALB/c mouse assessed as appearance of pyknosis at 20 mg/kg,ip administrated for 15 days", "assay_type": "functional, organism-based", "details": "time 15.0 day"}, "[30]": {"experiment": "Cmax in Sprague-Dawley rat at 10 mg/kg,po by LC-MS/MS analysis", "assay_type": "ADME, organism-based", "design": "dose 10 mg/kg, route po", "details": "in vivo"}}, "note": "Activity calls are given as the source filed them. No cut-off for these calls is given here."}
{"smiles": "Cc1ccc(-c2cc3c(cc2-c2ccc(C#N)cc2)c(C(=O)N2CCC(N)CC2)cn3S(=O)(=O)c2ccc(F)cc2)cc1", "values": [{"measurement": "half-life", "setting": "[1]", "value": 6.27, "unit": "h"}, {"measurement": "Activity", "setting": "[2]", "value": "Active"}, {"measurement": "inhibition at 20 min, 10 µM", "setting": "[3]", "value": 17.5, "unit": "%"}, {"measurement": "Ki", "setting": "[4]", "value": 0.155, "unit": "µM"}, {"measurement": "CLint scaled", "setting": "[5]", "value": 8.6, "unit": "mL/min/kg"}, {"measurement": "Activity", "setting": "[6]", "value": "Active"}, {"measurement": "IC50", "setting": "[7]", "value": 3.8, "unit": "µM"}, {"measurement": "inhibition", "setting": "[8]", "value": "Dose-Dependent Effect"}, {"measurement": "clearance", "setting": "[9]", "value": 35.5, "unit": "mL/min/kg"}, {"measurement": "inhibition", "setting": "[10]", "value": "Dose-Dependent Effect"}, {"measurement": "IC50", "setting": "[11]", "value": 0.72, "unit": "µM"}, {"measurement": "Activity", "setting": "[12]", "value": "Active"}, {"measurement": "Activity", "setting": "[13]", "value": "Active"}, {"measurement": "IC50", "setting": "[14]", "value": 0.05, "unit": "µM"}, {"measurement": "IC50", "setting": "[15]", "value": 2.04, "unit": "µM"}, {"measurement": "Activity", "setting": "[16]", "value": "Non-Toxic"}, {"measurement": "inhibition at 20 min, 10 µM", "setting": "[17]", "value": 2.9, "unit": "%"}, {"measurement": "half-life", "setting": "[18]", "value": 8.78, "unit": "h"}, {"measurement": "IC50 at 72 h", "setting": "[19]", "value": 3.1, "unit": "µM"}, {"measurement": "Activity", "setting": "[20]", "value": "Dose-Dependent Effect"}, {"measurement": "Activity", "setting": "[21]", "value": "Active"}, {"measurement": "IC50", "setting": "[22]", "value": 5.8, "unit": "µM"}, {"measurement": "IC50", "setting": "[23]", "value": 3.4, "unit": "µM"}, {"measurement": "AUC(0-inf)", "setting": "[24]", "value": 1450, "unit": "ng·h/mL"}, {"measurement": "Activity", "setting": "[25]", "value": "Active"}, {"measurement": "Vd", "setting": "[26]", "value": 17.4, "unit": "L/kg"}, {"measurement": "Activity", "setting": "[27]", "value": 52.5, "unit": "%"}, {"measurement": "Tmax", "setting": "[28]", "value": 4, "unit": "h"}, {"measurement": "Activity", "setting": "[29]", "value": "Active"}, {"measurement": "Cmax", "setting": "[30]", "value": 46.5, "unit": "ng/mL"}]}
